In patent US9763445B2, “Safened herbicidal compositions comprising a pyridine carboxylic acid herbicide” (Dow AgroSciences, LLC, priority 2014, dated 2017):

Experiments:
[1] = system: bird's-eye speedwell (VERPE); experiment: Postemergence greenhouse trial, % visual injury on bird's-eye speedwell; assay type: in vivo, Veronica persica; conditions: VERPE; for % visual injury, Ob: CQC-m 0 g/ha
Protocol: (§1) Seeds of the desired test plant species were planted in Sun Gro MetroMix® 306 planting mixture, which typically has a pH of 6.0 to 6.8 and an organic matter content of about 30 percent, in plastic pots with a surface area of 103.2 square centimeters (cm^2). When required to ensure good germination and healthy plants, a fungicide treatment and/or other chemical or physical treatment was applied. The plants were grown for 7-36 days (d) in a greenhouse with an approximate 14-hour (h) photoperiod which was maintained at about 23° C. during the day and 22° C. during the night. Nutrients and water were added on a regular basis and supplemental lighting was provided with overhead metal halide 1000-Watt lamps as necessary. The plants were employed for testing when they reached the second or third true leaf stage.
(§2) Weighed amounts of technical material were dissolved in a volume of 97:3 volume per volume (v/v) acetone/dimethyl sulfoxide (DMSO) to stock solutions. […] The concentrated stock solutions were diluted with an aqueous mixture of 1.5% v/v of Agri-dex crop oil concentrate to provide the appropriate application rates. Compound requirements are based upon a 12 milliliter (mL) application volume at a rate of 187 liters per hectare (L/ha). Stocks solutions of the safeners were prepared following the same procedure. Spray solutions of the safeners and experimental compound mixtures were prepared by adding the stock solutions to the appropriate amount of dilution solution to form a 12 mL spray solution in two-way combinations. Formulated compounds were applied to the plant material with an overhead Mandel track sprayer equipped with 8002E nozzles calibrated to deliver 187 L/ha over an application area of 0.503 square meters (m^2) at a spray height of 18 inches (43 centimeters (cm)) above average plant canopy. Control plants were sprayed in the same manner with the solvent blank. All herbicide application (component a) rates are in g ae/ha and all safener (component b) rates are in g ai/ha.
(§3) The treated plants and control plants were placed in a greenhouse as described above and watered by sub-irrigation to prevent wash-off of the test compounds. After 20-22 d, the condition of the test plants as compared with that of the control plants was determined visually and scored on a scale of 0 to 100 percent where 0 corresponds to no injury and 100 corresponds to complete kill. Colby's equation was used to determine the herbicidal effects expected from the mixtures. […]

[2] = system: spring wheat (TRZAS); experiment: Postemergence greenhouse trial, % visual injury on spring wheat; assay type: in vivo, Triticum aestivum; conditions: TRZAS
Procedure, shortened: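 Postemergence greenhouse spray (187 L/ha, 1.5% v/v Agri-dex in water, acetone/DMSO stocks) on plants at second–third true leaf stage, ~23/22 °C, 14 h photoperiod; herbicides in g ae/ha, safener cloquintocet-mexyl in g ai/ha. Visual injury 0–100% versus solvent-blank controls after 20–22 d; Colby's equation gave expected mixture effects.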

[3] = system: common poppy (PAPRH); experiment: Postemergence greenhouse trial, % visual injury on common poppy; assay type: in vivo, Papaver rhoeas; conditions: PAPRH; for pest or weed control at 4.375 g/ha / pest or weed control at 8.75 g/ha / pest or weed control at 17.5 g/ha / pest or weed control at 35 g/ha / pest or weed control at 70 g/ha: Papaver rhoeas, post-emergence, applied alone, read-out: % visual injury, Ob; for % visual injury, Ob: CQC-m 0 g/ha
Protocol: as §1, §2, §3

[4] = system: thistle (CIRAR); experiment: Postemergence greenhouse trial, % visual injury on thistle; assay type: in vivo, Cirsium arvense; conditions: Cirsium arvense, post-emergence, CIRAR, applied alone, read-out: % visual injury, Ob
Protocol: as §1, §2
The treated plants and control plants were placed in a greenhouse as described above and watered by sub-irrigation to prevent wash-off of the test compounds. After 20-22 d, the condition of the test plants as compared with that of the control plants was determined visually and scored on a scale of 0 to 100 percent where 0 corresponds to no injury and 100 corresponds to complete kill. The condition of the test plants was compared with that of the control plants as determined visually and scored on a scale of 0 to 100 percent, where 0 corresponds to no injury and 100 corresponds to complete kill. Colby's equation was used to determine the herbicidal effects expected from the mixtures.
The safener cloquintocet-mexyl was combined with compound 1, compound 2, compound 4, compound 5, and compound 6, and applied to corn/maize (ZEAMX) and spring wheat (TRZAS) and the phytotoxicity of the herbicidal compositions was measured. In addition, the efficacy of the herbicidal composition on velvetleaf (ABUTH, Abutilon theophrasti), pigweed (AMARE, Amaranthus retroflexus), winter rape (BRSNW, Brassica napus), lambsquarters (CHEAL, Chenopodium album), thistle (CIRAR, Cirsium arvense), nutsedge (CYPES, Cyperus esculentus), poinsettia (EPHHL, Euphorbia heterophylla), wild buckwheat (POLCO, Polygonum convolvulus), giant foxtail (SETFA, Setaria faberi), and chickweed (STEME, Stellaria media) was evaluated. […]

[5] = system: winter rape (BRSNW); experiment: Postemergence greenhouse trial, % visual injury on winter rape; assay type: in vivo, Brassica napus; conditions: BRSNW; for % visual injury, Ob: CQC-m 0 g/ha
Procedure, shortened: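 Plants at second or third true leaf stage, greenhouse-grown (14 h photoperiod, ~23/22° C.), sprayed postemergence with compounds alone or with safener cloquintocet-mexyl in 1.5% v/v Agri-dex crop oil at 187 L/ha. Visual injury scored 0–100% versus solvent-blank controls after 20-22 d; expected mixture effects by Colby's equation.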

[6] = compound 8 4.380 + CQC-m 0 g/ha

## COC(=O)c1nc(-c2ccc3cc[nH]c3c2F)c(F)c(N)c1Cl [compound 8]
[1]; [6]
  % visual injury, observed (Ob): 83%
[1]; compound 8 8.75 + CQC-m 0 g/ha
  % visual injury, observed (Ob): 92%
[1]; compound 8 17.5 + CQC-m 0 g/ha
  % visual injury, observed (Ob): 96%
[1]; compound 8 35 + CQC-m 0 g/ha
  % visual injury, observed (Ob): 98%
[1]; compound 8 70 + CQC-m 0 g/ha
  % visual injury, observed (Ob): 100%
[2]; [6]
  % visual injury, observed (Ob): 7%
[2]; compound 8 8.75 + CQC-m 0 g/ha
  % visual injury, observed (Ob): 11%
[2]; compound 8 17.5 + CQC-m 0 g/ha
  % visual injury, observed (Ob): 35%
[2]; compound 8 35 + CQC-m 0 g/ha
  % visual injury, observed (Ob): 48%
[2]; compound 8 70 + CQC-m 0 g/ha
  % visual injury, observed (Ob): 60%
[3]; [6]
  % visual injury, observed (Ob): 97%
[3]; compound 8 8.75 + CQC-m 0 g/ha
  % visual injury, observed (Ob): 99%
[3]; compound 8 17.5 + CQC-m 0 g/ha
  % visual injury, observed (Ob): 100%
[3]; compound 8 35 + CQC-m 0 g/ha
  % visual injury, observed (Ob): 100%
[3]; compound 8 70 + CQC-m 0 g/ha
  % visual injury, observed (Ob): 100%

## Nc1c(F)c(-c2ccc3scnc3c2)nc(C(=O)O)c1Cl [compound 17]
[2]; 4.375 g/ha, applied alone
  % visual injury, Ob: 0%
[2]; 8.75 g/ha, applied alone
  % visual injury, Ob: 15%
[2]; 17.5 g/ha, applied alone
  % visual injury, Ob: 30%
[2]; 35 g/ha, applied alone
  % visual injury, Ob: 40%
[2]; 70 g/ha, applied alone
  % visual injury, Ob: 45%
[3]
  pest or weed control at 4.375 g/ha: 80%
  pest or weed control at 8.75 g/ha: 85%
  pest or weed control at 17.5 g/ha: 85%
  pest or weed control at 35 g/ha: 95%
  pest or weed control at 70 g/ha: 100%
[4]
  pest or weed control at 4.375 g/ha: 0%
  pest or weed control at 8.75 g/ha: 0%
  pest or weed control at 17.5 g/ha: 10%
  pest or weed control at 35 g/ha: 20%
  pest or weed control at 70 g/ha: 20%
[5]; Brassica napus, post-emergence, 4.375 g/ha, applied alone, read-out: % visual injury, Ob
  plant injury at 4.375 g/ha: 60%
[5]; Brassica napus, post-emergence, 8.75 g/ha, applied alone, read-out: % visual injury, Ob
  plant injury at 8.75 g/ha: 90%
[5]; Brassica napus, post-emergence, 17.5 g/ha, applied alone, read-out: % visual injury, Ob
  plant injury at 17.5 g/ha: 95%
[5]; Brassica napus, post-emergence, 35 g/ha, applied alone, read-out: % visual injury, Ob
  plant injury at 35 g/ha: 95%
[5]; Brassica napus, post-emergence, 70 g/ha, applied alone, read-out: % visual injury, Ob
  plant injury at 70 g/ha: 97%

## COc1c(C(=O)O)nc(-c2ccc3cc[nH]c3c2F)c(F)c1N [compound 13]
[1]; compound 4.375 g/ha
  % visual injury, Ob: 85%
[1]; compound 8.75 g/ha
  % visual injury, Ob: 93%
[1]; compound 17.5 g/ha
  % visual injury, Ob: 98%
[1]; compound 35 g/ha
  % visual injury, Ob: 98%
[1]; compound 70 g/ha
  % visual injury, Ob: 100%
[2]; compound 4.375 g/ha, CQC-m 0 g/ha
  % visual injury, Ob: 40%
[2]; compound 8.75 g/ha, CQC-m 0 g/ha
  % visual injury, Ob: 53%
[2]; compound 17.5 g/ha, CQC-m 0 g/ha
  % visual injury, Ob: 67%
[2]; compound 35 g/ha, CQC-m 0 g/ha
  % visual injury, Ob: 80%
[2]; compound 70 g/ha, CQC-m 0 g/ha
  % visual injury, Ob: 87%
[3]; compound 4.375 g/ha
  % visual injury, Ob: 90%
[3]; compound 8.75 g/ha
  % visual injury, Ob: 100%
[3]; compound 17.5 g/ha
  % visual injury, Ob: 100%
[3]; compound 35 g/ha
  % visual injury, Ob: 100%
[3]; compound 70 g/ha
  % visual injury, Ob: 100%
[5]; compound 4.375 g/ha
  % visual injury, Ob: 100%
[5]; compound 8.75 g/ha
  % visual injury, Ob: 100%
[5]; compound 17.5 g/ha
  % visual injury, Ob: 100%
[5]; compound 35 g/ha
  % visual injury, Ob: 100%
[5]; compound 70 g/ha
  % visual injury, Ob: 100%

## Nc1c(F)c(-c2ccc3ccoc3c2)nc(C(=O)O)c1Cl [compound 20]
[2]; 4.375 g/ha, applied alone
  % visual injury, Ob: 0%
[2]; 8.75 g/ha, applied alone
  % visual injury, Ob: 0%
[2]; 17.5 g/ha, applied alone
  % visual injury, Ob: 0%
[2]; 35 g/ha, applied alone
  % visual injury, Ob: 10%
[2]; 70 g/ha, applied alone
  % visual injury, Ob: 20%
[3]
  pest or weed control at 4.375 g/ha: 85%
  pest or weed control at 8.75 g/ha: 85%
  pest or weed control at 17.5 g/ha: 95%
  pest or weed control at 35 g/ha: 100%
  pest or weed control at 70 g/ha: 95%
[4]
  pest or weed control at 4.375 g/ha: 0%
  pest or weed control at 8.75 g/ha: 10%
  pest or weed control at 17.5 g/ha: 20%
  pest or weed control at 35 g/ha: 40%
  pest or weed control at 70 g/ha: 70%
